The values below come from patent US10285982B2, “3-(1H-pyrrolo[2,3-B]pyridin-2-yl)-1H-pyrazolo[3,4-C]pyridines and therapeutic uses thereof” (Samumed, LLC, priority 2015, dated 2019).

By EC50 is commonly meant the concentration that produces a half-maximal response. For orientation: inhibition means the change of the read-out against control, counted positive when it falls.

Holding throughout (format): cell-based
The test system of one assay is SW480 colon cancer cells. As to the kind of experiment: Cell viability assay (CellTiter-Blue). The settings on record: Homo sapiens, 96 h, four days; for inhibition at 10 µM: given where EC50 >10 μM, read-out: percent inhibition at 10 μM. The gist of the method: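 SW480 colon cancer cells (~2×10^3/well) exposed to 8-point 1:3 dilutions from 10 μM to 0.0045 μM for four days at 37 °C/5% CO2. Viability read by resazurin (CellTiter-Blue) fluorescence after ~3 h, Ex 560/Em 590 nm. EC50 from non-linear regression; percent inhibition at 10 μM given when EC50 >10 μM.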
(Resazurin is reduced to fluorescent resorufin, in cell work by metabolically active cells.)

A further assay concerns IL-6 (THP-1 cells). As to the kind of experiment: IL-6 inhibition in LPS-stimulated THP-1 cells (HTRF). Conditions: Homo sapiens; for EC50: IL-6 in THP-1 cells, LPS 500 ng/mL, 22 hours; for inhibition at 10 µM: given where EC50 >10 μM, IL-6, THP-1 cells, LPS, read-out: percent inhibition at 10 μM. The method in brief:
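THP-1 cells, serum-reduced (1% FBS) for 24 h, were preincubated with compound (10-point 1:3 series from 10 μM, 0.1% DMSO) for 2 h, then stimulated with 500 ng/mL LPS for 22 h at 37° C. IL-6 was read by HTRF (665/620 nm ratio) and normalized to DMSO. EC50 from four-parameter fit; % inhibition at 10 μM given if EC50 >10 μM.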

Assay [1] has as its system Wnt activity (Sp5-Luc reporter, SW480 colon carcinoma cells). As to the kind of experiment: Wnt activity screening assay, Sp5-Luc reporter gene in SW480 cells. Conditions: Homo sapiens; for EC50: overnight incubation; for inhibition at 10 µM: given where EC50 >10 μM, read-out: percent inhibition at 10 μM. The method in brief: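 First, hygromycin-selected SW480 Sp5-Luc reporter cells are seeded in medium with 1% fetal bovine serum and exposed overnight to compound (up to 10 μM, 0.1% DMSO). Next, luciferase signal is read by luminescence. Finally, EC50 is fitted, or percent inhibition at 10 μM is reported above 10 μM.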
In general terms: A reporter such as luciferase makes a cellular process visible.

As for `O=C(Cc1ccccc1)Nc1cncc(-c2cc3c(-c4cc5c(-c6ccccc6F)ccnc5[nH]4)n[nH]c3cn2)c1` [Compound 66, N-(5-(3-(4-(2-Fluorophenyl)-1H-pyrrolo[2,3-b]pyridin-2-yl)-1H-pyrazolo [3,4-c]pyridin-5-yl)pyridin-3-yl)-2-phenylacetamide], the figures for the half-maximal effective concentration (EC50) (in the assay with SW480 colon cancer cells; with IL-6 (THP-1 cells); in assay [1]) were 0.62 µM, over 10 µM and 0.139 µM, respectively. Moreover, in the assay with IL-6 (THP-1 cells), the inhibition at 10 µM is 35.8%.
Take `CN(C)Cc1cncc(-c2cc3c(-c4cc5c(-c6ccccc6F)ccnc5[nH]4)n[nH]c3cn2)c1` [Compound 69, 1-(5-(3-(4-(2-Fluorophenyl)-1H-pyrrolo[2,3-b]pyridin-2-yl)-1H-pyrazolo [3,4-c]pyridin-5-yl)pyridin-3-yl)-N,N-dimethylmethanamine]: the inhibition at 10 µM is 13.2% in the assay with SW480 colon cancer cells, 17.4% in the assay with IL-6 (THP-1 cells) and 11.3% in assay [1]. Further, the EC50 (in the assay on SW480 colon cancer cells; in the assay on IL-6 (THP-1 cells); in assay [1]) was over 10 µM in each case.
Consider `CCCCC(=O)Nc1cncc(-c2cc3c(-c4cc5c(-c6ccccc6F)ccnc5[nH]4)n[nH]c3cn2)c1` [Compound 75, N-(5-(3-(4-(2-Fluorophenyl)-1H-pyrrolo[2,3-b]pyridin-2-yl)-1H-pyrazolo [3,4-c]pyridin-5-yl)pyridin-3-yl)pentanamide], for which the EC50 in the assay with SW480 colon cancer cells is 0.242 µM; with IL-6 (THP-1 cells) it was over 10 µM; in assay [1], 0.542 µM. For the same molecule, the inhibition at 10 µM in the assay with IL-6 (THP-1 cells) was 0%.
For `O=C(Nc1cncc(-c2cc3c(-c4cc5c(-c6ccccc6F)ccnc5[nH]4)n[nH]c3cn2)c1)C1CCCCC1` [Compound 79, N-(5-(3-(4-(2-Fluorophenyl)-1H-pyrrolo[2,3-b]pyridin-2-yl)-1H-pyrazolo [3,4-c]pyridin-5-yl)pyridin-3-yl)cyclohexanecarboxamide] the same measures were 3.49 µM, over 10 µM, 0.359 µM and 5.9%.
With `CCNCc1cncc(-c2cc3c(-c4cc5c(-c6cccnc6)ccnc5[nH]4)n[nH]c3cn2)c1` [Compound 90, N-((5-(3-(4-(Pyridin-3-yl)-1H-pyrrolo[2,3-b]pyridin-2-yl)-1H-pyrazolo[3,4-c]pyridin-5-yl)pyridin-3-yl)methyl)ethanamine], the inhibition at 10 µM in the assay on SW480 colon cancer cells amounted to 16%; with IL-6 (THP-1 cells), 33.9%. In addition, the half-maximal effective concentration (EC50) in the assay on SW480 colon cancer cells was over 10 µM; with IL-6 (THP-1 cells), over 10 µM; in assay [1] it was 3.2 µM.
With `CC(C)(C)C(=O)Nc1cncc(-c2cc3c(-c4cc5c(-c6cccnc6)ccnc5[nH]4)n[nH]c3cn2)c1` [Compound 92, N-(5-(3-(4-(Pyridin-3-yl)-1H-pyrrolo[2,3-b]pyridin-2-yl)-1H-pyrazolo[3,4-c]pyridin-5-yl)pyridin-3-yl)pivalamide], the inhibition at 10 µM with SW480 colon cancer cells was determined as 14.9%; with IL-6 (THP-1 cells) it was 23.3%; in assay [1], 3.4%. The EC50 (in the assay on SW480 colon cancer cells; with IL-6 (THP-1 cells); in assay [1]) was over 10 µM each time.
Regarding `O=C(Nc1cncc(-c2cc3c(-c4cc5c(-c6cccnc6)ccnc5[nH]4)n[nH]c3cn2)c1)c1ccccc1` [Compound 95, N-(5-(3-(4-(Pyridin-3-yl)-1H-pyrrolo[2,3-b]pyridin-2-yl)-1H-pyrazolo[3,4-c]pyridin-5-yl)pyridin-3-yl)benzamide], the inhibition at 10 µM in the assay with SW480 colon cancer cells is 14.2%; with IL-6 (THP-1 cells) it was 31.8%; in assay [1], 8.7%. Besides, the EC50 (in the assay on SW480 colon cancer cells; in the assay with IL-6 (THP-1 cells); in assay [1]) was over 10 µM in each case.
As for `CC(C)Nc1cncc(-c2cc3c(-c4cc5c(-c6cccnc6)ccnc5[nH]4)n[nH]c3cn2)c1` [Compound 96, N-Isopropyl-5-(3-(4-(pyridin-3-yl)-1H-pyrrolo[2,3-b]pyridin-2-yl)-1H-pyrazolo[3,4-c]pyridin-5-yl)pyridin-3-amine], the inhibition at 10 µM came to 20.5% in the assay on SW480 colon cancer cells, 23.5% in the assay on IL-6 (THP-1 cells) and 30.3% in assay [1]. For the same molecule, the EC50 (in the assay on SW480 colon cancer cells; with IL-6 (THP-1 cells); in assay [1]) was over 10 µM each time.
`c1cncc(-c2ccnc3[nH]c(-c4n[nH]c5cnc(-c6cncc(CN7CCCC7)c6)cc45)cc23)c1` [Compound 98, 3-(4-(Pyridin-3-yl)-1H-pyrrolo[2,3-b]pyridin-2-yl)-5-(5-(pyrrolidin-1-ylmethyl)pyridin-3-yl)-1H-pyrazolo[3,4-c]pyridine]: the inhibition at 10 µM in the assay on SW480 colon cancer cells stood at 11.5%; in the assay on IL-6 (THP-1 cells) it was 27.7%; in assay [1] it was 25.2%. The EC50 (in the assay with SW480 colon cancer cells; with IL-6 (THP-1 cells); in assay [1]) was over 10 µM each time.
As to `CCCCC(=O)Nc1cncc(-c2cc3c(-c4cc5c(-c6cccnc6)ccnc5[nH]4)n[nH]c3cn2)c1` [Compound 103, N-(5-(3-(4-(Pyridin-3-yl)-1H-pyrrolo[2,3-b]pyridin-2-yl)-1H-pyrazolo[3,4-c]pyridin-5-yl)pyridin-3-yl)pentanamide], the inhibition at 10 µM came out at 7.4% in the assay on SW480 colon cancer cells, 17.8% with IL-6 (THP-1 cells) and 7.8% in assay [1]. Besides, the EC50 (in the assay on SW480 colon cancer cells; with IL-6 (THP-1 cells); in assay [1]) was over 10 µM throughout.
For `c1cncc(-c2ccnc3[nH]c(-c4n[nH]c5cnc(-c6cncnc6)cc45)cc23)c1` [Compound 111, 3-(4-(Pyridin-3-yl)-1H-pyrrolo[2,3-b]pyridin-2-yl)-5-(pyrimidin-5-yl)-1H-pyrazolo[3,4-c]pyridine], the results for the inhibition at 10 µM (in the assay on SW480 colon cancer cells; with IL-6 (THP-1 cells); in assay [1]) were 17.3%, 37.4% and 7.8%, respectively. The EC50 (in the assay with SW480 colon cancer cells; in the assay on IL-6 (THP-1 cells); in assay [1]) was over 10 µM each time.
Turning to `CC(C)CC(=O)Nc1cncc(-c2cc3c(-c4cc5c(-c6ccncc6)ccnc5[nH]4)n[nH]c3cn2)c1` [Compound 114, 3-Methyl-N-(5-(3-(4-(pyridin-4-yl)-1H-pyrrolo[2,3-b]pyridin-2-yl)-1H-pyrazolo[3,4-c]pyridin-5-yl)pyridin-3-yl)butanamide], the inhibition at 10 µM in the assay on SW480 colon cancer cells worked out at 0%; in the assay with IL-6 (THP-1 cells), 13%; in assay [1], 9.6%. For the same molecule, the EC50 (in the assay with SW480 colon cancer cells; in the assay with IL-6 (THP-1 cells); in assay [1]) was over 10 µM throughout.
For the molecule `Cc1ccncc1-c1cc2c(-c3cc4c(-c5ccncc5)ccnc4[nH]3)n[nH]c2cn1` [Compound 117, 5-(4-Methylpyridin-3-yl)-3-(4-(pyridin-4-yl)-1H-pyrrolo[2,3-b]pyridin-2-yl)-1H-pyrazolo[3,4-c]pyridine], the 50% effective concentration (EC50) is 8.43 µM in the assay on SW480 colon cancer cells, over 10 µM with IL-6 (THP-1 cells) and over 10 µM in assay [1]. The inhibition at 10 µM in the assay with IL-6 (THP-1 cells) stood at 15.9%; in assay [1], 42.4%.
Consider `O=C(Cc1ccccc1)Nc1cncc(-c2cc3c(-c4cc5c(-c6ccncc6)ccnc5[nH]4)n[nH]c3cn2)c1` [Compound 122, 2-Phenyl-N-(5-(3-(4-(pyridin-4-yl)-1H-pyrrolo[2,3-b]pyridin-2-yl)-1H-pyrazolo[3,4-c]pyridin-5-yl)pyridin-3-yl)acetamide], for which the results for the inhibition at 10 µM (in the assay on SW480 colon cancer cells; in the assay with IL-6 (THP-1 cells); in assay [1]) were 7%, 34.8% and 7.9%, respectively. Also, the EC50 (in the assay with SW480 colon cancer cells; in the assay on IL-6 (THP-1 cells); in assay [1]) was over 10 µM throughout.
With `CN(C)Cc1cncc(-c2cc3c(-c4cc5c(-c6ccncc6)ccnc5[nH]4)n[nH]c3cn2)c1` [Compound 125, N,N-Dimethyl-1-(5-(3-(4-(pyridin-4-yl)-1H-pyrrolo[2,3-b]pyridin-2-yl)-1H-pyrazolo[3,4-c]pyridin-5-yl)pyridin-3-yl)methanamine], the inhibition at 10 µM in the assay on SW480 colon cancer cells was found to be 3.9%; in the assay on IL-6 (THP-1 cells), 34.4%; in assay [1], 12.6%. The concentration for a half-maximal effect (EC50) (in the assay on SW480 colon cancer cells; with IL-6 (THP-1 cells); in assay [1]) was over 10 µM throughout.
For `O=C(Nc1cncc(-c2cc3c(-c4cc5c(-c6ccncc6)ccnc5[nH]4)n[nH]c3cn2)c1)C1CCC1` [Compound 133, N-(5-(3-(4-(Pyridin-4-yl)-1H-pyrrolo[2,3-b]pyridin-2-yl)-1H-pyrazolo[3,4-c]pyridin-5-yl)pyridin-3-yl)cyclobutanecarboxamide], the inhibition at 10 µM is 3.7% in the assay with SW480 colon cancer cells, 11.9% in the assay with IL-6 (THP-1 cells) and 1.8% in assay [1]. Further, the EC50 (with SW480 colon cancer cells; in the assay on IL-6 (THP-1 cells); in assay [1]) was over 10 µM in each case.
On to `O=C(Nc1cncc(-c2cc3c(-c4cc5c(-c6ccncc6)ccnc5[nH]4)n[nH]c3cn2)c1)C1CCCCC1` [Compound 135, N-(5-(3-(4-(Pyridin-4-yl)-1H-pyrrolo[2,3-b]pyridin-2-yl)-1H-pyrazolo[3,4-c]pyridin-5-yl)pyridin-3-yl)cyclohexanecarboxamide], for which the inhibition at 10 µM in the assay with SW480 colon cancer cells worked out at 10.3%; in the assay on IL-6 (THP-1 cells), 17.8%; in assay [1] it was 13%. The EC50 (with SW480 colon cancer cells; in the assay on IL-6 (THP-1 cells); in assay [1]) was over 10 µM each time.
